Laboratory results published in ChEMBL document CHEMBL1131305, “1-[2(R)-(2-amino-2-methylpropionylamino)-3-(1H-indol-3-yl)propionyl]- 3-benzylpiperidine-3(S)-carboxylic acid ethyl ester (L-163,540): a potent, orally bioavailable, and short-duration growth hormone secretagogue” (J Med Chem, 1998).
Each block holds one molecule with its values, some of them ahead of it.

Key:
Rattus norvegicus = organism: Rattus norvegicus; test: Effective concentration for half-maximal release of growth hormone determined in the rat pituitary cell assay, normalized against standard L692,429 (60 nM).; format: functional; conditions: Pituitary gland cell
[1] = Maximum plasma concentration following oral administration of 26.3 mg/kg in rats; format: ADME, organism-based; design: dose 26.3 mg/kg, route oral; conditions: rat
[2] = Maximum plasma concentration following oral administration of 3.8 mg/kg in Beagle dog; format: ADME, organism-based, Canis lupus familiaris; design: dose 3.8 mg/kg, route oral
[3] = Volume of distribution was determined in dogs at 0.46 mg/kg, iv; format: ADME, organism-based, Canis lupus familiaris; design: dose 0.46 mg/kg, route intravenous; conditions: dog, in vivo, read-out: Vdss
[4] = Bioavailability in dogs at 3.8 mg/kg oral dose.; format: ADME, organism-based, Canis lupus familiaris; conditions: dog, in vivo
[5] = Bioavailability in rats at 26.3 mg/kg oral dose.; format: ADME, organism-based; conditions: rat, in vivo
[6] = Half-life determined at 0.46 mg/kg, iv, in dogs; format: ADME, organism-based, Canis lupus familiaris; design: dose 0.46 mg/kg; conditions: dog, in vivo
[7] = Clearance rate at 0.46 mg/kg, iv, in dogs; format: ADME, organism-based, Canis lupus familiaris; design: dose 0.46 mg/kg; conditions: dog, in vivo
[8] = Clearance rate at 5.5 mg/kg, iv, in rat; format: ADME, organism-based; design: dose 5.5 mg/kg; conditions: in vivo
[9] = Half-life determined at 5.5 mg/kg, iv, in rat; format: ADME, organism-based; design: dose 5.5 mg/kg; conditions: in vivo
[10] = Volume of distribution was determined in rat at 5.5 mg/kg, iv; format: ADME, organism-based; design: dose 5.5 mg/kg, route intravenous; conditions: in vivo, read-out: Vdss

Structure (SMILES): CCOC(=O)[C@]1(Cc2ccccc2)CCN(C(=O)[C@@H](Cc2c[nH]c3ccccc23)NC(=O)C(C)(C)N)C1
- EC50 (Rattus norvegicus): > 50 nM

Structure (SMILES): CCNC(=O)[C@]1(Cc2ccccc2)CCCN(C(=O)[C@@H](Cc2c[nH]c3ccccc23)NC(=O)C(C)(C)N)C1
- EC50 (Rattus norvegicus): 0.8 nM

- Cmax [1]: 182 ng/mL
- Cmax [2]: 560 ng/mL
- Vd [3]: 1.3 L/kg
- bioavailability [4]: 29%
- bioavailability [5]: 12.1%
- half-life [6]: 72 min
- clearance [7]: 23 mL/min/kg
- clearance [8]: 206 mL/min/kg
- half-life [9]: 24 min
- Vd [10]: 2.7 L/kg
Structure (SMILES): CCOC(=O)[C@]1(Cc2ccccc2)CCCN(C(=O)[C@@H](Cc2c[nH]c3ccccc23)NC(=O)C(C)(C)N)C1

Structure (SMILES): CCOC(=O)[C@]1(Cc2ccccc2)CCCN(C(=O)[C@@H](Cc2c[nH]c3ccccc23)NC(=O)C(C)N)C1 (stereo partly drawn)
- EC50 (Rattus norvegicus): 6 nM

Structure (SMILES): CCOC(=O)[C@]1(Cc2ccccc2)CCCCN(C(=O)[C@@H](Cc2c[nH]c3ccccc23)NC(=O)C(C)(C)N)C1
- EC50 (Rattus norvegicus): > 200 nM

Structure (SMILES): CC(C)(N)C(=O)N[C@H](Cc1c[nH]c2ccccc12)C(=O)N1CCC[C@@](Cc2ccccc2)(C(=O)O)C1
- EC50 (Rattus norvegicus): 190 nM

Structure (SMILES): CCOC(=O)[C@]1(Cc2ccccc2)CCCN(C(=O)[C@@H](CCCc2ccccc2)NC(=O)C(C)(C)N)C1
- EC50 (Rattus norvegicus): 8 nM

Structure (SMILES): CCOC(=O)[C@]1(Cc2ccccc2)CCCN(C(=O)[C@@H](COCc2ccccc2)NC(=O)C(C)(C)N)C1
- EC50 (Rattus norvegicus): 20 nM

Structure (SMILES): CCOC(=O)[C@@]1(Cc2ccccc2)CCCN(C(=O)[C@@H](Cc2c[nH]c3ccccc23)NC(=O)C(C)(C)N)C1
- EC50 (Rattus norvegicus): 22 nM
